Data as given in US9072746B2, “Method for enhancing learning and memory impaired by neurodegenerative disorders and compounds and compositions for effecting the same” (The Board of Trustees of the Leland Stanford Junior …, priority 2010, dated 2015).
“Also recorded” adds a separate entry of the source.

Columns and labels:
Ts65Dn mice [1] = settings: restoration of norepinephrine level; cited from earlier work
Ts65Dn mice [2] = settings: restoration of norepinephrine level; cited from earlier work; remark: listed apart in the source
C57Bl/6J mice = assay: Contextual fear conditioning memory retrieval (FIG. 10A, B); format: in vivo; settings: betaxolol 1 mg/kg, atenolol 3 mg/kg s.c.
Method: In all experiments xamoterol 3 mg/kg, atenolol 3 mg/kg, and betaxolol 1 mg/kg were injected subcutaneously. […] Results are shown as mean+SEM (ns=not significant, *=p<0.05, and **=p<0.01).

male Ts65Dn mice [3] = assay: Contextual fear conditioning; format: in vivo; settings: betaxolol 1 mg/kg s.c. plus xamoterol 3 mg/kg s.c.
Method: Contextual and Cued fear conditioning was conducted for evaluation of fear-dependent learning and retrieval in the study. The test was performed using chambers from Coulbourn Instruments (Whitehall, Pa.). On the first day, the animals were placed in a chamber (Context A) for 3 min for baseline recording, followed by 5 tone-shock pairings. The shock (0.5 mA, 2 sec) was delivered following the tone (70 dB, 2 kHz, 20 sec) in each conditional/unconditional stimulus pairing. On the second day a novel chamber (Context B; new room, new olfactory environment, texture of floor, blue plastic inserts for walls, extra source of blue light, and visual cues) was used for cued testing. Three tones without shocks were presented to animals during a 3 min testing period following a 3 min pre-tone period. On the last day of the experiment, the mice were placed in Context A for 5 min without any conditional and unconditional stimulus {modified from the method described by (Saxe et al., 2006)}. Freezing was defined as the complete lack of motion for a minimum of 0.75 second as measured by FreezeFrame software (Actimetrics, Evanston, Ill.). The percent of freezing in each period was reported. For the startle response control test, an acoustic startle reflex apparatus (Med Associates Inc., St. Albans, Vt.) was used. The subjects were acclimated to the animal holder in the startle box for a total of 15 min over 3 consecutive-days prior to the experiment. The animals were exposed to 25 different trials with 10-20 second randomly variable inter-trial intervals. Five different intensities of startle pulses, 0, 90, 100, 110, and 120 dB, were randomly used, and each animal was randomly exposed 5 times to each intensity of the startle pulse. The duration of each startle pulse was 40 ms and the peak amplitude of the startle response in each trial was recorded for analysis. The holding cage on the apparatus was cleaned with 10% alcohol between each animal. […] In this part of the study, activity chamber and three cognitive tests, including T-maze spontaneous alternation, contextual fear conditioning (CFC), and novel object recognition were performed. In T-maze spontaneous alternation and contextual fear conditioning, both Ts65Dn and 2N male mice were divided into three treatment groups including normal saline (Vehicle), xamoterol, and betaxolol plus xamoterol groups. In the novel object recognition test, both Ts65Dn and 2N male mice were divided into two treatment groups, normal saline and xamoterol. The T-maze was performed exactly as previously described. […] On the first day (training day), animals were placed in the fear conditioning chamber, and after a 3-minute pre-shock period, they were exposed to 5 shocks (2 s, 0.5 mA,) with inter-trial intervals of 80 seconds and no tone. On the second day, the animals first received xamoterol, xamoterol plus betaxolol, or saline injection, and one hour later, they were placed in the same chamber for 5 minutes. Similar to the previous description of fear conditioning, freezing was defined as the complete lack of motion for a minimum of o.75 second. The Novel Object Recognition task is conducted in an open field arena (40 cm×40 cm). Mice were habituated in the testing room for 1 hour followed by 5 minutes habituation inside the arena without any objects. On 4th day animals were introduced 3 times to arena with 3 identical subjects for 10 minutes with 3 minutes inter trial intervals. On 5th day (24 hours after trainings) one of the objects replaced by a novel one and the time sniffing of each object were used for analysis. For testing the role of β1 adrenergic system, xamoterol and betaxolol (Tocris Bioscience, Ellisville, Mo.) were injected subcutaneously using 10 ml/kg normal saline as vehicle. Xamoterol, (3 mg/kg) was given one hour before testing and betaxolol (1 mg/kg) was given 30 minutes before testing.

male Ts65Dn mice [4] = assay: T-maze spontaneous alternation; format: in vivo; settings: betaxolol 1 mg/kg s.c. plus xamoterol 3 mg/kg s.c.
Description: The T-maze had 3 equal arms (30 cm length, 10 cm width, and 20 cm height). The start arm and 2 goal arms had guillotine gates. This test was based on the rodents' preference to experience a new arm of the T-maze instead of a familiar one ([…], 1998). In each trial, the mouse was placed in the start arm. The gate was then opened and the mouse was able to freely explore the arms. As soon as the mouse entered one goal arm, the sliding gate of the other goal arm closed. The mouse eventually returned to the start arm and the next trial was started. In the next trial, the mouse may recognize the previously chosen goal arm and choose to explore a new arm rather than revisit the previously visited arm. This trial was repeated 11 times per day for 3 consecutive days, for a total of 33 trials. The maze was cleaned with 50% ethanol between trials to eliminate odor. Percent of alternation (number of turns in each goal arm) was used for analysis. This protocol has been described before by Belichenko et al. (2009) and is modified from a Deacon and Rawlins (2006) protocol (Deacon and Rawlins, 2006; Belichenko et al., 2009). […] In this part of the study, activity chamber and three cognitive tests, including T-maze spontaneous alternation, contextual fear conditioning (CFC), and novel object recognition were performed. In T-maze spontaneous alternation and contextual fear conditioning, both Ts65Dn and 2N male mice were divided into three treatment groups including normal saline (Vehicle), xamoterol, and betaxolol plus xamoterol groups. In the novel object recognition test, both Ts65Dn and 2N male mice were divided into two treatment groups, normal saline and xamoterol. The T-maze was performed exactly as previously described. […] On the first day (training day), animals were placed in the fear conditioning chamber, and after a 3-minute pre-shock period, they were exposed to 5 shocks (2 s, 0.5 mA,) with inter-trial intervals of 80 seconds and no tone. On the second day, the animals first received xamoterol, xamoterol plus betaxolol, or saline injection, and one hour later, they were placed in the same chamber for 5 minutes. Similar to the previous description of fear conditioning, freezing was defined as the complete lack of motion for a minimum of o.75 second. The Novel Object Recognition task is conducted in an open field arena (40 cm×40 cm). Mice were habituated in the testing room for 1 hour followed by 5 minutes habituation inside the arena without any objects. On 4th day animals were introduced 3 times to arena with 3 identical subjects for 10 minutes with 3 minutes inter trial intervals. On 5th day (24 hours after trainings) one of the objects replaced by a novel one and the time sniffing of each object were used for analysis. For testing the role of β1 adrenergic system, xamoterol and betaxolol (Tocris Bioscience, Ellisville, Mo.) were injected subcutaneously using 10 ml/kg normal saline as vehicle. Xamoterol, (3 mg/kg) was given one hour before testing and betaxolol (1 mg/kg) was given 30 minutes before testing.

Row | SMILES | effect on nesting behavior (Ts65Dn mice [1]) | effect on hippocampal-mediated contextual deficit in fear conditioning (Ts65Dn mice [2]) | effect on memory retrieval of contextual fear conditioning (C57Bl/6J mice) | effect of betaxolol on xamoterol's rescue of contextual fear conditioning (male Ts65Dn mice [3]) | effect of betaxolol on xamoterol's rescue of spontaneous alternation (male Ts65Dn mice [4])
1 | N[C@H](C(=O)O)[C@H](O)c1ccc(O)c(O)c1 [L-DOPS, L-threo-3,4-dihydroxyphenylserine] | restored | restored | – | – | –
2 | CC(C)NCC(O)COc1ccc(CC(N)=O)cc1 (stereo not drawn) [atenolol] | – | – | did not have such an effect | – | –
3 | CC(C)NCC(O)COc1ccc(CCOCC2CC2)cc1 (stereo not drawn) [betaxolol] | – | – | impaired | completely reversed; also recorded: prevents or blocks; also recorded: completely blocked; also recorded: betaxolol prevents this effect | completely reversed; also recorded: prevented or blocked; also recorded: blocked; also recorded: betaxolol prevents this effect
